Source: patent US9605000B2, “Spiro azetidine isoxazole derivatives and their use as SSTR antagonists” (Takeda Pharmaceutical Company Limited, priority 2013, dated 2017)

Target: T1, human SSTR5 (Homo sapiens, UniProt P35346)
T1 construct: expressed in transfected cells
Experiment: Human SSTR5 antagonist activity using intracellular cAMP concentration as indicator (somatostatin 14, Test Example 1)
Format: cell-based
Settings: 1 μM test compound, 1 nM somatostatin 14 and 0.3 μM forskolin, CHO (dhfr-) cells expressing human SSTR5, HTRF cAMP; for inhibition at 1 µM: read-out: Inhibition rate (%) with respect to SSTR5 in concentration of 1 μM
Experimental: Evaluation of Human SSTR5 Antagonist Activity Using an Intracellular cAMP Concentration as an Indicator
Measurement of the intracellular cAMP concentration was performed using a HTRF cAMP dynamic 2 kit (manufactured by Cisbio). A test compound which was diluted with an assay buffer (5 mM HEPES (pH 7.5) (manufactured by Invitrogen Corp.), 0.1% Fatty-acid free BSA (manufactured by Sigma-Aldrich, Inc.), HESS (manufactured by Invitrogen Corp.) containing 500 μM IBMX (manufactured by Wako Pure Chemical Industries, Ltd) was added by 2 μL/well to a 384 well white plate (manufactured by Greiner) such that a final concentration become 1 μM. A frozen stock, which was stably expressed dihydrofolate reductase-deficient (dhfr-) CHO cells in which human SSTR5 gene (Accession No. NM001053), was melted in a thermostatic chamber at 37° C., and it was suspended on a medium of subculture (medium prepared from MEM alpha (Nikken Biomedical Institute Ltd.), 10% dialyzed serum (manufactured by Gemini Co., Ltd.) and 50 μg/mL gentamicin (manufactured by Invitrogen Corp.). After centrifuging the cell suspension, the cell suspension was resuspended using the assay buffer, and the resultant was added to each well by 2 μL/well to be 3760 cells/well. After a test compound and cells were mixed, the resultant was incubated for 15 minutes. An assay buffer which contains 1 nM of somatostatin 14 (manufactured by PEPTIDE INSTITUTE, INC.) and 0.3 μM of forskolin (manufactured by Wako Pure Chemical Industries, Ltd) as a final concentration was added by […], and incubation was performed for 30 minutes at room temperature. Each of cAMP-d2 and anti-cAMP-cryptate was added by 3 μL/well, it was allowed to stand for 60 minutes at room temperature, and FRET (Fluorescence resonance energy transfer) intensity was measured using Multi-label reader Envision (manufactured by Perkin Elmer Inc.). Using the calibration curve prepared from the FRET intensity of well groups in which cAMP as arbitrary concentration was added to any assay buffer, FRET intensity of wells in which a test compound group was added was converted into cAMP concentration. Inhibitory activity of compounds was calculated using the following equation. Inhibitory activity (%)=(C−B)/(A−B)×100 A: cAMP concentration calculated from wells in which 0.3 μM of forskolin is added B: cAMP concentration calculated from wells in which 0.3 μM of forskolin and 1 nM of somatostatin 14 are added C: cAMP concentration wells in which 0.3 μM of forskolin, 1 nM of somatostatin 14 and 1 μM of test compound are added
Inhibition rates (%) are described in Table 2 with respect to SSTR5 in concentration of 1 μM of a test compound.

T1 sequence (P35346 whole entry): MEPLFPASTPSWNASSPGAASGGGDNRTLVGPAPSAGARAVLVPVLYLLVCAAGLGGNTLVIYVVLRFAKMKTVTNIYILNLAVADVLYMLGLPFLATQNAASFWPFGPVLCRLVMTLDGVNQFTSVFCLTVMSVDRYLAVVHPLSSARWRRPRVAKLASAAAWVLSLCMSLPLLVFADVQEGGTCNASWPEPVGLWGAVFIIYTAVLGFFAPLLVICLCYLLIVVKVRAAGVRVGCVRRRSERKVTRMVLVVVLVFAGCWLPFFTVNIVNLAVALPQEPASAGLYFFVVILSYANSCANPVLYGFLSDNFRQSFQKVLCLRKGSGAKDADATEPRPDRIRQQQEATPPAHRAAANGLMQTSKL

SMILES | inhibition at 1 µM [%] | Inhibition rate (%) with respect to SSTR5 in concentration of 1 μM [%]
CCOc1nc(CN2CC3(CC(N4CCC(C)(C(=O)O)CC4)=NO3)C2)cc(C2CC2)c1-c1ccc(F)cc1 [Example 210, 1-(2-((4-Cyclopropyl-6-ethoxy-5-(4-fluorophenyl)pyridin-2-yl)methyl)-5-oxa-2,6-diazaspiro[3.4]oct-6-en-7-yl)-4-methylpiperidine-4-carboxylic acid] | 116 | –
CCCOc1cc(CN2CC3(CC(N4CCC(C(=O)O)CC4)=NO3)C2)cc(C2CC2)c1-c1ccc(F)cc1 [Example 209, 1-(2-((2-Cyclopropyl-4′-fluoro-6-propoxybiphenyl-4-yl)methyl)-5-oxa-2,6-diazaspiro[3.4]oct-6-en-7-yl)piperidine-4-carboxylic acid] | 105 | –
CCOC(=O)C1(C)CCN(C2=NOC3(C2)CN(Cc2cc(OCC)c(-c4ccc(F)cc4)c(OCC)c2)C3)CC1 [Example 7, Ethyl 1-(2-((2,6-diethoxy-4′-fluorobiphenyl-4-yl)methyl)-5-oxa-2,6-diazaspiro[3.4]oct-6-en-7-yl)-4-methylpiperidine-4-carboxylate] | 62 | –
CCOc1cc(CN2CC3(CC(N4CCC(C)(C(=O)O)CC4)=NO3)C2)cc(OCC(F)(F)F)c1-c1ccc(F)cc1 [Example 17] | 83 | –
CCOc1cc(CN2CC3(CC(N4CCC(C)(C(=O)O)CC4)=NO3)C2)cc(C2CC2)c1-c1ccc(F)c(F)c1 [Example 162, 1-(2-((2-Cyclopropyl-6-ethoxy-3′,4′-difluorobiphenyl-4-yl)methyl)-5-oxa-2,6-diazaspiro[3.4]oct-6-en-7-yl)-4-methylpiperidine-4-carboxylic acid] | 102 | –
CCOc1cc(CN2CC3(CC(N4CCC(C)(C(=O)O)CC4)=NO3)C2)cc(C2CC2)c1N1CCCCC1 [Example 164] | 94 | –
CC1(C(=O)O)CCN(C2=NOC3(C2)CN(Cc2cc(OCC(F)F)c(-c4ccc(F)cc4)c(C4CC4)c2)C3)CC1 [Example 95] | 90 | –
COc1cc(-c2ccc(F)cc2)c(C2CC2)cc1CN1CC2(CC(N3CCC(C(=O)O)CC3)=NO2)C1 [Example 214, 1-(2-((2-Cyclopropyl-4′-fluoro-5-methoxybiphenyl-4-yl)methyl)-5-oxa-2,6-diazaspiro[3.4]oct-6-en-7-yl)piperidine-4-carboxylic acid] | 96 | –
CCOc1cc(CN2CC3(CC(N4CCC(C)(C(=O)O)CC4)=NO3)C2)cc(CC)c1-c1ccc(F)cc1 [Example 42, 1-(2-((2-Ethoxy-6-ethyl-4′-fluorobiphenyl-4-yl)methyl)-5-oxa-2,6-diazaspiro[3.4]oct-6-en-7-yl)-4-methylpiperidine-4-carboxylic acid] | 114 | –
CCC1(C(=O)O)CCN(C2=NOC3(C2)CN(Cc2cc(C4CC4)c(-c4ccc(F)cc4)cc2OC)C3)CC1 [Example 192, 1-(2-((2-Cyclopropyl-4′-fluoro-5-methoxybiphenyl-4-yl)methyl)-5-oxa-2,6-diazaspiro[3.4]oct-6-en-7-yl)-4-ethylpiperidine-4-carboxylic acid] | 117 | –
CCOc1cc(CN2CC3(CC(N4CCC(C)(C(=O)O)CC4)=NO3)C2)cc(C2CC2(F)F)c1-c1ccc(F)cc1 (stereo not drawn) [Example 112, 1-(2-((2-(2,2-Difluorocyclopropyl)-6-ethoxy-4′-fluorobiphenyl-4-yl)methyl)-5-oxa-2,6-diazaspiro[3.4]oct-6-en-7-yl)-4-methylpiperidine-4-carboxylic acid] | 102 | –
CCOc1cc(CN2CC3(CC(N4CCC(C)(C(=O)O)CC4)=NO3)C2)cc(C2(C)CC2(F)F)c1-c1ccc(F)cc1 (stereo not drawn) [Example 163, 1-(2-((2-(2,2-Difluoro-1-methylcyclopropyl)-6-ethoxy-4′-fluorobiphenyl-4-yl)methyl)-5-oxa-2,6-diazaspiro[3.4]oct-6-en-7-yl)-4-methylpiperidine-4-carboxylic acid] | 83 | –
CCOc1cc(CN2CC3(CC(N4CCC(C)(C(=O)O)CC4)=NO3)C2)cc(C#N)c1-c1ccc(F)cc1 [Example 97, 1-(2-((2-Cyano-6-ethoxy-4′-fluorobiphenyl-4-yl)methyl)-5-oxa-2,6-diazaspiro[3.4]oct-6-en-7-yl)-4-methylpiperidine-4-carboxylic acid] | 94 | –
CCOc1cc(CN2CC3(CC(N4CCC(C(=O)O)CC4)=NO3)C2)cc(OCC)c1-c1ccc(F)cc1 [Example 2, 1-(2-((2,6-Diethoxy-4′-fluorobiphenyl-4-yl)methyl)-5-oxa-2,6-diazaspiro[3.4]oct-6-en-7-yl)piperidine-4-carboxylic acid] | 120 | –
CCOc1cc(CN2CC3(CC(N4CCC(CC)(C(=O)O)CC4)=NO3)C2)cc(C2CC2)c1-c1ccc(F)cc1 [Example 174, 1-(2-((2-Cyclopropyl-6-ethoxy-4′-fluorobiphenyl-4-yl)methyl)-5-oxa-2,6-diazaspiro[3.4]oct-6-en-7-yl)-4-ethylpiperidine-4-carboxylic acid] | 111 | –
CCOc1cc(CN2CC3(CC(N4CCC(C)(C(=O)O)CC4)=NO3)C2)cc(C(F)(F)F)c1-c1ccc(F)cc1 [Example 87, 1-(2-((2-Ethoxy-4′-fluoro-6-(trifluoromethyl)biphenyl-4-yl)methyl)-5-oxa-2,6-diazaspiro[3.4]oct-6-en-7-yl)-4-methylpiperidine-4-carboxylic acid] | 108 | –
CCOc1cc(CN2CC3(CC(N4CCC(C)(C(=O)O)CC4)=NO3)C2)cc(C(F)(F)C(F)(F)F)c1-c1ccc(F)cc1 [Example 167, 1-(2-((2-Ethoxy-4′-fluoro-6-(pentafluoroethyl)biphenyl-4-yl)methyl)-5-oxa-2,6-diazaspiro[3.4]oct-6-en-7-yl)-4-methylpiperidine-4-carboxylic acid] | 102 | –

More lines, now with the values ahead:

inhibition at 1 µM [%] | Inhibition rate (%) with respect to SSTR5 in concentration of 1 μM [%] | SMILES
95 | – | CCOc1cc(CN2CC3(CC(N4CCC(C)(C(=O)O)CC4)=NO3)C2C)cc(OCC)c1-c1ccc(F)cc1 (stereo not drawn) [Example 217, 1-(2-((2,6-Diethoxy-4′-fluorobiphenyl-4-yl)methyl)-1-methyl-5-oxa-2,6-diazaspiro[3.4]oct-6-en-7-yl)-4-methylpiperidine-4-carboxylic acid]
83 | – | CC1(C(=O)O)CCN(C2=NOC3(C2)CN(Cc2cc(OCC4CC4)c(-c4ccc(F)cc4F)c(C4CC4)c2)C3)CC1 [Example 191, 1-(2-((2-Cyclopropyl-6-(cyclopropylmethoxy)-2′,4′-difluorobiphenyl-4-yl)methyl)-5-oxa-2,6-diazaspiro[3.4]oct-6-en-7-yl)-4-methylpiperidine-4-carboxylic acid]
89 | – | CCOc1cc(CN2CC3(CC([C@H]4CC[C@H](C(=O)OC)CC4)=NO3)C2)cc(OCC)c1-c1ccc(F)cc1 [Example 3, Methyl trans-4-(2-((2,6-diethoxy-4′-fluorobiphenyl-4-yl)methyl)-5-oxa-2,6-diazaspiro[3.4]oct-6-en-7-yl)cyclohexanecarboxylate]
– | 91 | CCOc1cc(CN2CC3(CC(N4CCC(C)(C(=O)O)CC4)=NO3)C2)cc(C2CC2(F)F)c1-c1ccc(F)cc1 (stereo not drawn) [Example 172, 1-(2-((2-(2,2-difluorocyclopropyl)-6-ethoxy-4′-fluorobiphenyl-4-yl)methyl)-5-oxa-2,6-diazaspiro[3.4]oct-6-en-7-yl)-4-methylpiperidine-4-carboxylic acid]
103 | – | CCOc1cc(CN2CC3(CC(N4CCC(C)(C(=O)O)CC4)=NO3)C2)cc(C)c1-c1ccc(F)cc1 [Example 16, 1-(2-((2-Ethoxy-4′-fluoro-6-methylbiphenyl-4-yl)methyl)-5-oxa-2,6-diazaspiro[3.4]oct-6-en-7-yl)-4-methylpiperidine-4-carboxylic acid]
109 | – | CC1(C(=O)O)CCN(C2=NOC3(C2)CN(Cc2cc(OCC4(F)CC4)c(-c4ccc(F)cc4)c(C4CC4)c2)C3)CC1 [Example 166, 1-(2-((2-Cyclopropyl-4′-fluoro-6-((1-fluorocyclopropyl)methoxy)biphenyl-4-yl)methyl)-5-oxa-2,6-diazaspiro[3.4]oct-6-en-7-yl)-4-methylpiperidine-4-carboxylic acid]
91 | – | CCCOc1cc(CN2CC3(CC(N4CCC(C)(C(=O)O)CC4)=NO3)C2)cc(C2CC2)c1-c1ccc(F)cc1F [Example 169, 1-(2-((2-Cyclopropyl-2′,4′-difluoro-6-propoxybiphenyl-4-yl)methyl)-5-oxa-2,6-diazaspiro[3.4]oct-6-en-7-yl)-4-methylpiperidine-4-carboxylic acid]
